# In patent US20250288632A1, “Viral Entry Inhibitors Derived From Botanicals” (priority 2022, published 2025):
# Tests used:
# [1] = tested on: wild type SARS-CoV-2 pseudovirion; experiment: microbe, parasite or virus in culture; assay type: cell-based; conditions: Severe acute respiratory syndrome coronavirus 2, read-out: EC50 % Inhibition (μg/mL)
# [2] = tested on: SARS-CoV2 (Calu3); experiment: microbe, parasite or virus in culture; assay type: cell-based, SARS-CoV-2; conditions: Severe acute respiratory syndrome coronavirus 2, Calu-3, 72 h
# [3] = Cytotoxicity assay measuring cell proliferation in PBM cells; assay type: cell-based; conditions: remdesivir
# Description: Numbers in parentheses indicate percent inhibition at the highest concentration tested. Cytotoxicity assays measuring the cell proliferation in PBM and Vero cells were performed in parallel to the antiviral assays.
# [4] = tested on: SARS-CoV2 (Caco2); experiment: microbe, parasite or virus in culture; conditions: Severe acute respiratory syndrome coronavirus 2, Caco-2, 72 h
# [5] = tested on: SARS-CoV2 (Vero); experiment: microbe, parasite or virus in culture; assay type: cell-based, SARS-CoV-2; conditions: Severe acute respiratory syndrome coronavirus 2, Vero, 48 h
SMILES,EC50 [1] [µg/mL],EC50 ([2]; read-out: Anti-SARS-CoV2 (Calu3) EC50) [nM],EC90 ([2]; read-out: Anti-SARS-CoV2 (Calu3) EC90) [nM],CC50 [3] [nM],EC50 ([4]; read-out: Anti-SARS-CoV2 (Caco2) EC50) [nM],EC90 ([4]; read-out: Anti-SARS-CoV2 (Caco2) EC90) [nM],EC50 ([5]; read-out: Anti-SARS-CoV2 (Vero) EC50) [nM],EC90 ([5]; read-out: Anti-SARS-CoV2 (Vero) EC90) [nM]
CCN(CCO)CCCC(C)Nc1ccnc2cc(Cl)ccc12 (centres unmarked) [Hydroxy cholorquine],1.14,–,–,–,–,–,–,–
CCC(CC)COC(=O)[C@H](C)N[P@](=O)(OC[C@H]1O[C@@](C#N)(c2ccc3c(N)ncnn23)[C@H](O)[C@@H]1O)Oc1ccccc1 [Remdesivir],–,2,20,1200,100,400,600,1600
